Type in all cases: cell-based
One experiment has as its system LNCaP cells. The experiment in a line: Inhibition of LNCaP cell proliferation (WST-8). The settings on record: Homo sapiens, LNCaP FGC cells, 96 hours. The procedure, abridged:
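WST-8 absorbance at 450 nm measured proliferation after 96 h of compound exposure at 37 °C, 5% CO2. Dosing used nine 5-fold dilutions from a 10 µM top final concentration, applied to cells cultured overnight beforehand.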
(In general: Formazan colour is commonly taken as a measure of viable cells.)

The subject of the next experiment is VCaP cells. The experiment in a line: Inhibition of VCaP cell proliferation (WST-8). The settings on record: Homo sapiens, 168 hours. The procedure, abridged: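 Proliferation was read on day 9 as WST-8 absorbance at 450 nm after VCaP cells (15,000/well, DMEM/10% FBS, 37°C) were exposed from day 2 to compound at 9 points, 5-fold serial dilution, top final concentration 10 µM.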

A further experiment addresses T1, AR protein (Homo sapiens, UniProt P10275, T878A).
T1 construct: host or cells: LNCaP FGC
T1 sequence (P10275 1-920 T878A): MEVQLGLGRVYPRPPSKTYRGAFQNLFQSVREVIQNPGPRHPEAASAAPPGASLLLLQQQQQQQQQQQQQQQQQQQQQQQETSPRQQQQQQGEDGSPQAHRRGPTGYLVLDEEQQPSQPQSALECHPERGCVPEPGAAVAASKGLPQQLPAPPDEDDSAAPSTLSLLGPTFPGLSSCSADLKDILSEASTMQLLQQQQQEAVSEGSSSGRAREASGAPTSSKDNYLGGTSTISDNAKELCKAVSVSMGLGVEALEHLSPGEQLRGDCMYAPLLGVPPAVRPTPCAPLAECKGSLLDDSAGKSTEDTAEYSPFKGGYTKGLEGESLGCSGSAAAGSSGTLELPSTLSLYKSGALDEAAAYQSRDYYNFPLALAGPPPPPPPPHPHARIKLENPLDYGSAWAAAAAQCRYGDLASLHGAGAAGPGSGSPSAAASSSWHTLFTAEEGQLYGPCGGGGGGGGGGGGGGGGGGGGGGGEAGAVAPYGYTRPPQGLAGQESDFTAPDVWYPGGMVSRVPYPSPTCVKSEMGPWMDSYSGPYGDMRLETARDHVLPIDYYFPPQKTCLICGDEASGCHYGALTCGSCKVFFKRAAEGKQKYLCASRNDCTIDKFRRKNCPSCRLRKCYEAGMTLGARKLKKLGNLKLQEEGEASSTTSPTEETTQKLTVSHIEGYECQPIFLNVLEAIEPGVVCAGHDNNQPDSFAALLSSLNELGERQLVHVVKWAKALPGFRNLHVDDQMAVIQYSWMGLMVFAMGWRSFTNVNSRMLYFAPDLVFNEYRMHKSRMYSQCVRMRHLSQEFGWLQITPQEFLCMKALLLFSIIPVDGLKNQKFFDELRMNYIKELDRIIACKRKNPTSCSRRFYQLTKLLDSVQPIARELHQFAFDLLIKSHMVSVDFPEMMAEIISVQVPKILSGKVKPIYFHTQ
The experiment is described as follows: AR protein degradation in LNCaP cells (Western blot). The settings on record: 8 hours. The procedure, abridged: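 AR degradation rate derived from Western blot band densitometry, referenced to GAPDH, using total lysates of LNCaP cells treated 8 h with compound versus solvent control. Detection used infrared dual-color imaging after SDS-PAGE and PVDF transfer.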
Background: Immunoblotting shows a protein as a band on a membrane.

These results are taken from patent EP4722219A1 (Gan & Lee Pharmaceuticals Co., Ltd., priority 2023, dated 2024).

As usually defined, the IC50 is the concentration that gives 50% inhibition. Low values mean greater potency, high ones weaker potency.

SMILES strings stand for the structures.

For `COc1cc(O[C@H]2C(C)(C)[C@H](NC(=O)c3ccc(N4CCC(CN5CCN6c7ccc(C(=O)N[C@H]8CCC(=O)NC8=O)cc7OC[C@@H]6C5)CC4)cc3)C2(C)C)ccc1C#N` [A-P-67], the IC50 in the experiment on LNCaP cells was determined as 7.22 µM; in the experiment with VCaP cells, 170 nM. The “Degradation of AR protein in LNCaP cells, 10 nM (%)” value (shortened to “Degradation … 10 nM (%)”) on AR protein (10 nM) is given as 55%. Further, the “Degradation of AR protein in LNCaP cells, 100 nM (%)” value (from here on “Degradation … 100 nM (%)”) at AR protein (100 nM) came to 85%.

Regarding `C[C@H]1CC2(CCN(c3ccc(C(=O)N4CCC(CN5CCN6c7ccc(C(=O)N[C@H]8CCC(=O)NC8=O)cc7OC[C@H]6C5)CC4)cc3)CC2)CN1c1ccc(C#N)c(Cl)c1` [A-P-68], the half-inhibitory concentration (IC50) was found to be 0.97 µM with LNCaP cells and 4.5 nM in the experiment on VCaP cells. In addition, at AR protein (10 nM), the “Degradation … 10 nM (%)” value was 51%. For the same molecule, the “Degradation … 100 nM (%)” value on AR protein (100 nM) was determined as 84%.

As for `N#Cc1ccc(O[C@H]2CC[C@H](NC(=O)c3ccc(N4CCC(N5CCC6(CC5)CCC5(CC6)COc6c5ccc5c6CN(C6CCC(=O)NC6=O)C5=O)CC4)nn3)CC2)cc1Cl` (relative stereo) [A-P-7, N-((1r,4r)-4-(3-chloro-4-cyanophenoxy)cyclohexy 1)-6-(4-(7-(2,6-dioxopiperidin-3-yl)-6-oxo-7,8-dihydro-2H,6H-dipyridyl[2,3-e]isoindole-3,1'-cyclohexane-4',4'"-piperidin]-1"-yl)pyridazine-3-carboxamide], the IC50 in the experiment on LNCaP cells is 1.88 µM; in the experiment on VCaP cells, 6 nM. The “Degradation … 10 nM (%)” value at AR protein (10 nM) was 85%. Also, the “Degradation … 100 nM (%)” value on AR protein (100 nM) is recorded as 75%.

For `COc1cc(O[C@H]2C(C)(C)[C@H](NC(=O)c3ccc(N4CCC(C)(CN5CCC6(CCc7cc(C(=O)N[C@H]8CCC(=O)NC8=O)c(F)cc7O6)CC5)CC4)nc3)C2(C)C)ccc1C#N` [A-P-49, 1'-((1-(5-(((1R,3R)-3-(4-cyano-3-methoxyphenoxy)-2,2,4,4-tetramethylcyclobutyl)carbamoyl)pyridin-2-yl)-4-methylpiperidin-4-yl)methyl)-N-((S)-2,6-dioxopiperidin-3-yl)-7-fluorospiro[chroman-2,4'-piperidin]-6-carboxamide], the IC50 with LNCaP cells was found to be 0.6 µM; in the experiment on VCaP cells, 41 nM. Moreover, the “Degradation … 10 nM (%)” value on AR protein (10 nM) turned out to be 48%. The “Degradation … 100 nM (%)” value on AR protein (100 nM) stood at 62%.

With `COc1cc(O[C@H]2C(C)(C)[C@H](NC(=O)c3ccc(N4CCC(CN5CCC6(CCc7cc(C(=O)N[C@H]8CCC(=O)NC8=O)c(F)cc7O6)CC5)CC4)nc3)C2(C)C)ccc1C#N` [A-P-33, 1'-((1-(5-(((1R,3R)-3-(4-cyano-3-methoxyphenoxy)-2,2,4,4-tetramethylcyclobutyl)carbamoyl)pyridin-2-yl)piperidin-4-yl)methyl)-N-((S)-2,6-dioxopiperidin-3-yl)-7-fluorospiro[chroman-2,4'-piperidin]-6-carboxamide], the IC50 was determined as 1.58 µM with LNCaP cells and 450 nM in the experiment with VCaP cells. Moreover, on AR protein (10 nM), the “Degradation … 10 nM (%)” value is reported as 84%. In addition, the “Degradation … 100 nM (%)” value on AR protein (100 nM) was determined as 85%.

As for `Cn1c(=O)n(C2CCC(=O)NC2=O)c2ccc3c(c21)OCC31CCN(CC2CCN(c3ccc(C(=O)N[C@H]4CC[C@H](Oc5ccc(C#N)c(Cl)c5)CC4)nn3)CC2)CC1` (stereo partly shown) [A-P-24], the IC50 amounted to 22.8 µM with LNCaP cells and 0.0081 nM in the experiment on VCaP cells. This molecule registered a percent AR protein degradation at a fixed concentration at 0.01 µM at AR protein (10 nM) of 49%. This molecule gave a percent AR protein degradation at a fixed concentration at 0.1 µM at AR protein (100 nM) of 29%.

Consider `Cn1c(=O)n(C2CCC(=O)NC2=O)c2cc3c(cc21)C1(CCN(C2CC4(CCN(c5ccc(C(=O)N[C@H]6CC[C@H](Oc7ccc(C#N)c(Cl)c7)CC6)nn5)CC4)C2)CC1)CO3` (relative stereo) [A-P-12, N-((1r,4r)-4-(3-chloro-4-cyanophenoxy)cyclohexy 1)-6-(2-(3-(2,6-dioxopiperidin-3-yl)-1-methyl-2-oxo-2,3-dihydro-1H,6H-spiro[benzofuro[5,6-d]imidazole-7,4'-piperidin]-1'-yl)-7-azaspiro[3.5]nonan-7-yl)pyridazine-3-carboxamide], for which the IC50 came out at 8.11 µM in the experiment on LNCaP cells and 0.023 nM with VCaP cells. For the same molecule, the “Degradation … 10 nM (%)” value at AR protein (10 nM) was determined as 56%. Besides, the “Degradation … 100 nM (%)” value on AR protein (100 nM) was 9%.
